Reference: US20090215783A1, “COMPOSITION FOR INDUCTION OR INHIBITION OF STEM CELL DIFFERENTIATION” (CHOONGWAE PHARMA CORPORATION, priority 2006, published 2009)

What was measured:
[1] = test system: β-catenin/TCF transcription; experiment: TopFlash reporter gene assay in SW480 cells; type: cell-based; conditions: Homo sapiens; SW480 cells transfected with β-catenin/TCF luciferase construct; 24 hours treatment; dual luciferase assay; read-out: IC50, inhibition of β-catenin/TCF reporter gene construct
Experimental: FIG. 2. Compound A (Serial No. 111 in Table 2) inhibits β-catenin/TCF transcription. […] SW480 cells (10^5) were transfected with β-catenin/TCF luciferase construct. Cells were treated with Compound A (1-50 μM). 24 hours after the treatment lysates were prepared and subjected to dual luciferase assay.
FIG. 3. Compound B (Serial No. 10 in Table 2) inhibits β-catenin/TCF transcription. […] SW480 cells ([…]) were transfected with β-catenin/TCF luciferase construct. Cells were treated with Compound B (1-50 μM). 24 hours after treatment lysates were prepared and subjected to dual luciferase assay.
SW480 cells were transfected using Superfect™ transfection reagent (Qiagen, 301307). Cells were trypsinized briefly 1 day before transfection and plated on 6 well plate (5×10^5 cells/well) so that they were 50-80% confluent on the day of transfection.
Four microgram (TOPFlash) and one microgram (pRL-null) of DNAs were diluted in […] of serum-free medium, and 30 μl of Superfect™ transfection reagent was added. The DNA-Superfect mixture was incubated at room temperature for 15 min, and then, 1 ml of 10% FBS DMEM was added to this complex for an additional 3 hours of incubation. While complexes were forming, cells were washed with PBS twice without antibiotics.
The DNA-Superfect™ transfection reagent complexes were applied to the cells before incubating at 37° C. at 5% CO2 for 3 hours. […]

[2] = test system: Mouse embryonic stem (ES) cells, TC1; experiment: Cardiomyogenesis modulating activity assay (alpha-MHC promoter EGFP, embryoid bodies, FACS/fluorescence microscopy); type: cell-based; conditions: for Cardiomyogenesis: fold change of EGFP expression level compared with DMSO control: embryoid bodies treated for 5 days
Summary of the method: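 Mouse TC1 ES cells carrying an alpha-MHC promoter-EGFP reporter were formed into embryoid bodies (~600 cells, 2 days hanging drop, 2 days suspension), plated, then exposed to compounds (final 0.05% DMSO) for 5 days. Cardiomyogenesis assessed by EGFP via FACS after trypsin dissociation, fluorescence microscopy, and daily counts of beating EBs.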

[3] = test system: human bone marrow derived-mesenchymal stem cells (hBMMSC); experiment: Osteogenesis modulating activity assay by test compound alone (ALP activity); type: cell-based; conditions: for fold induction at 20 µM: Homo sapiens, 168 h, 20 μM test compound alone, six to seven days, read-out: Osteogenesis: fold change of ALP activity compared with DMSO control
Summary of the method: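 hBMMSC from normal subjects were treated with compound at 20 μM final (0.01% DMSO) at 37° C, 5% CO2, with medium and compound renewed every two days. Alkaline phosphatase activity in cell lysates was measured colorimetrically after six to seven days.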

[4] = test system: human bone marrow derived-mesenchymal stem cells (hBMMSC); experiment: Osteogenesis modulating activity with osteogenic induction cocktails (ALP activity, mineralization); type: cell-based; conditions: for mineralization of hBMMSC: co-treated with osteogenic induction cocktails (OIC); for stimulation of mineralization at various concentrations: even at the 0.5 μM
Experimental: Cell culture: Human bone marrow derived-mesenchymal stem cells (hBMMSC) were isolated from normal subjects.
Osteogenesis modulating activity of test compounds with induction media: hBMMSC were culture with culture media containing osteogenic induction cocktails (OIC, 0.1 μM dexamethasone, 50 μM ascorbate-2-phosphate, 10 mM b-glycerophosphate). Four to five days after incubation, Alkaline phosphatase (ALP) activity of cell lysates were measured by colorimetry. For the determination of mineralization within the cells, Von Kossa staining or Alizarin Red S assay was performed 10-14 days after incubation.

hBMMSC = experiment: Cell proliferation assay (CellTiter 96) in hBMMSC; type: cell-based, human; conditions: treated alone; for cell proliferation: 20 μM
Experimental: Cell proliferation assay: To investigate the cytotoxicity of the test compounds for hBMMSC, hBMMSC were exposed to the test compounds for 6-7 days at the same condition above (method b and c). Cell proliferation was assessed using CellTiter 96 Aqueous One Solution (Promega, #G3581). Absorbance at 490 nm of each well was determined with a microplate reader (Molecular Device) and % growth inhibition was calculated compared with control.

ALP mRNA in hBMMSC = experiment: RT-PCR of alkaline phosphatase (ALP) mRNA in hBMMSC; type: cell-based, human; conditions: compound treatment for 4 days
Experimental: RT-PCR. To analyze the mRNA levels for Alkaline phosphatase (ALP), total RNA was isolated using Trizol (Invitrogen-GIBCO-BRL, Baltimore, Md.) from hBMMSC with or without compound treatment for 4 days. 2 μg RNA was reverse transcribed in a total volume of 20 μl with random hexamer (50 ng), and using the Superscript II reverse transcription system (Invitrogen-GIBCO-BRL), according to manufacturer's guidelines. PCR was carried out in a 50 μl volume containing 5 μl cDNA, 100 pmol primers, 100 μM dNTPs, 1×Taq buffer and 1.5 mM MgCl2. Reaction mixtures were heated to 80° C. for 10 min, after which Taq was added. cDNAs were amplified for 25 ([…]) or 15 (GAPDH) cycles. One round of amplification consisted of 1 min at 94° C., 2 min at 60° C., and 2 min at 72° C., with a final extension time of 10 min at 72° C. The PCR products were resolved and visualized by electrophoresis in a 2% gel, stained with ethidium bromide. ALP PCR primers used were, 5′-[…]-3′ and 5′-[…]-3′. Primer pairs for GAPDH were 5′-[…]-3′ and 5′-[…]-3′. A housekeeping gene, GADPH was used as a control.

C2C12 myoblasts = experiment: Myogenesis (myotube formation) in C2C12 myoblast cells; type: cell-based, Murine; conditions: C2C12 cells grown in GM
Experimental: (§1) a. Cell culture: Murine C2C12 myoblastic cell line (satellite cells from thigh muscle) purchased from American Tissue Type Collection (ATCC) was maintained in exponential phase of growth using 10% FBS/DMEM with Glutamax designed as GM (growth medium) supplied with antibiotic solution (Penicillin and Streptomycin) in a controlled humidified air atmosphere supplied with 5% CO2, at 37° C. in a multiwell or tissue culture Petri dishes (Corning-Costar Inc U.S.A.).
b. Induction of differentiation and test compound treatment: Every other day the cells were washed twice with phosphate buffered saline (PBS) and medium was changed until they reached 100% confluence. […] In the above mentioned conditions C2C12 myoblasts easily and fully differentiate into myotubes, therefore we could follow up modifications of differentiation process during 5 subsequent days. During the study freshly prepared media without or with the experimental factors were changed every 24 hours. Test compounds were dissolved in DMSO and diluted with culture medium. Test compounds (if not specified, 10 μM was used, final DMSO 0.1% v/v) or DMSO (0.1% v/v) were added to the medium.

[5] = test system: MyoD and Myf5 protein expression in C2C12 cells; experiment: Expression of MyoD and Myf5 (Western immunoblot) in C2C12 cells; type: cell-based, Murine; conditions: for expression of Myf5 compared with DMSO control, dose dependence: 5 and 10 μM; for Myf-5 expression on co-treatment with Wnt1 conditioned medium: co-treated with Wnt1
Experimental: as §1
b. Induction of differentiation and test compound treatment: Every other day the cells were washed twice with phosphate buffered saline (PBS) and medium was changed until they reached 100% confluence. Confluent cells (myoblasts of the same cell density fully covering surface dish) were then guided to post mitotic status, and differentiation and fusion were initiated by replacing GM with 2% (v/v) horse serum HS/DMEM designed as DM (differentiating medium). In the above mentioned conditions C2C12 myoblasts easily and fully differentiate into myotubes, therefore we could follow up modifications of differentiation process during 5 subsequent days. During the study freshly prepared media without or with the experimental factors were changed every 24 hours. Test compounds were dissolved in DMSO and diluted with culture medium. Test compounds (if not specified, 10 μM was used, final DMSO 0.1% v/v) or DMSO (0.1% v/v) were added to the medium.
c. Expression of MyoD and Myf5: Cells were lysed and protein expression levels were analyzed by Western-immunoblot analysis, as described in the literature (Verma et al., British J Pharmacol, 2004, 143, 106-13). Equal amount of protein samples were resolved by sodium dodecyl sulphate poly-acrylamide gel electrophoresis (SDS-PAGE) and transferred to nitrocellulose membranes. The membranes were blocked with 5% bovine serum albumin (BSA) and incubated with the indicated primary antibodies for 12˜h: polyclonal C20 antion MyoD (from Santa-Cruz, Biotechnology, Santa Cruz, Calif.) diluted 1/400, polyclonal anti-Myf-5 directed against the COOH-terminal portion of the protein. After several washes in PBS, membranes were incubated with chemiluminescence reagents.

[6] = test system: ANP and Nkx2.5 mRNA in the ES cells; experiment: Real time RT-PCR of cardiomyogenesis marker genes ANP and Nkx2.5; type: cell-based, mouse; conditions: ES cells treated for 7 and 10 days
Experimental: d. Real time RT-PCR: To analyze the mRNA levels of cardiomyogenesis marker genes, Atrial Natriuretic Peptide (ANP) and Nk×2.5, total RNA was isolated using Trizol (Invitrogen-GIBCO-BRL, Baltimore, Md., USA) from stem cells with or without Compound E treatment for 7 days and 10 days. Relative expression level of each mRNA was measured.

Row | SMILES | IC50 [1] | Cardiomyogenesis: fold change of EGFP expression level compared with DMSO control ([2]; FACS) | ALP level enhanced ([3]; 20 μM, treated alone to hBMMSC) | fold induction at 20 µM ([3]; hBMMSC) | mineralization of hBMMSC [4] | stimulation of mineralization at various concentrations [4] | cell proliferation (hBMMSC) | ALP mRNA expression (ALP mRNA in hBMMSC) | expression of Myf5 compared with DMSO control, dose dependence [5] | Myf-5 expression on co-treatment with Wnt1 conditioned medium [5] | further results
1 | CN1CC(=S)N2[C@H](Cc3ccc(O)cc3)C(=O)N(Cc3cccc4ccccc34)C[C@H]2N1C(=O)NCc1ccccc1 [#111] | 1.46 µM | 0.10 fold |  |  |  |  |  |  |  |  | 
2 | O=C1C(Cc2ccc(OCc3ccccc3)cc2)N2C(=O)CN(Cc3ccc(F)cc3)N(C(=O)NCc3ccccc3)C2CN1Cc1cccc(C(F)(F)F)c1 (stereo not shown) [#66] |  | 3.13 fold | 202% | 2.02 | strongly induced mineralization | osteogenesis inducing activity | 83% | increased |  |  | 
3 | O=C1[C@@H](Cc2ccc(O)cc2)N2C(=S)CCN(C(=O)NCc3ccccc3)[C@@H]2CN1Cc1cccc2ccccc12 [#112] |  | 0.95 fold |  |  |  |  |  |  | dose-dependently increased | further enhanced | myotube formation in growth medium (GM) (C2C12 myoblasts): extensive myotube formation; Myf5 protein expression level [5]: significantly increased; MyoD protein expression level [5]: significantly increased
4 | O=C1[C@H](Cc2ccc(Cl)cc2)N2C(=O)CN(Cc3ccccc3)N(C(=O)NCc3ccccc3)[C@H]2CN1CCc1ccc(Cl)cc1 [#82] |  | 0.97 fold | 200% | 2 | strongly induced mineralization | osteogenesis inducing activity | 127% | increased |  |  | 
5 | O=C1[C@H](Cc2ccc(F)c(F)c2)N2C(=O)CN(Cc3ccc(F)cc3)N(C(=O)NCc3ccccc3)[C@H]2CN1Cc1cccc(C(F)(F)F)c1 [#71] |  | 4.63 fold |  |  |  |  |  |  |  |  | expression of fluorescence under the fluorescence microscope compared with DMSO control ([2]; 10 μM, Day 5): significantly enhanced; fold increase of alpha-MHC positive cells compared to DMSO treated EB ([2]; 10 μM, FACS): 4.6 fold; cell population expressing fluorescence (alpha-MHC positive) ([2]; 10 μM, FACS analysis of embryoid bodies): 2.50%; cardiomyogenesis differentiation promoting effect at low concentration ([2]; even at the 0.3 μM): distinctive; cardiomyogenesis differentiation promoting activity (EGFP expression), concentration dependence ([2]; various concentrations): concentration-dependent; expression level of ANP mRNA compared with DMSO control [6]: strongly increased; expression level of Nkx2.5 mRNA compared with DMSO control [6]: strongly increased
6 | CN(C)c1c(Cl)cccc1CN1C[C@H]2N(C(=O)CN(C)N2C(=O)NCc2ccccc2)[C@@H](Cc2ccc(O)cc2)C1=O [#10] | 6.98 µM | 0.26 fold |  | 0.23 |  |  |  |  | dose-dependently decreased | abolished Myf-5 enhancing activity of Wnt1 | cellular alkaline phosphatase activity ([3]; 20 μM, hBMMSC): strongly inhibited; ALP level reduced ([3]; 20 μM, treated alone to hBMMSC): 77%; ALP level reduced compared with vehicle control group ([4]; 20 μM, co-treated with osteogenic induction cocktails): 80%; inhibition at 20 µM (hBMMSC; Homo sapiens, read-out: cell proliferation inhibited): 51%; expression of fluorescence, ratio Compound : DMSO control (control = 1) ([2]; 10 μM for 5 days, mouse embryonic stem cells): 0.26; Myf-5 expression, compound without Wnt1 [5]: reduced; Myf5 expression on co-treatment of CBP ([5]; co-treatment of CBP): not changed; Myf5 expression on co-treatment of p300 ([5]; co-treatment of p300): rescues the decrease of Myf5 expression
